Experiments:
HLA-DQ2 = assay: DQ2-peptide binding; parameters: species or system human; conditions: single peptide binding; thrombin treated DQ2–αI; DQ2:peptide = 10:1 ([DQ2]=6 μM, [peptide]=0.6 μM); 48 h at 37 °C; phosphate buffer pH 7.3; CE-FL peak areas; error less than 4% in multiple repeats
DQ2–CLIP complex = DQ2–CLIP complex (Homo sapiens, UniProt P01909+P01920); assay: CLIP pre-conditioned peptide exchange assay; assay type: binding; conditions: CE-FL; for binding to DQ2–CLIP preparation / displacement of pre-bound CLIP peptide: pH 5.5, peptide:DQ2 5:1 ([Cy5-20-mer]=35 μM; [DQ2-CLIP complex]=7 μM)
Chain of DQ2–CLIP complex (P01920 33-230 limits assumed, other chains not shown): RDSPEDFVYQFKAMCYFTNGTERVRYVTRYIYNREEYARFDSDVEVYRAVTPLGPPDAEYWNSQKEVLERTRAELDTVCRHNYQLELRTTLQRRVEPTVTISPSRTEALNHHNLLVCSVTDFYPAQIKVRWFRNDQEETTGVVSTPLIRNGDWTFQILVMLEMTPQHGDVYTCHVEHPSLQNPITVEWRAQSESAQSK

Row | Substance | SDQ2-peptide / Stotal peptide (%) (binding capacity, fraction of bound peptide) (HLA-DQ2) | binding to DQ2–CLIP preparation / displacement of pre-bound CLIP peptide (DQ2–CLIP complex) | effect on dissociation kinetics of CLIP peptide from DQ2–CLIP complex (DQ2–CLIP complex; pH 7.3, with 20-mer (5:1, [Cy5-20-mer]=35 μM; [DQ2-CLIP complex]=7 μM) versus absence of 20-mer)
1 | Cy5-LQLQPFPQPELPYPQPELPY [Cy5-20-mer] | 64% | not at pH 5.5 | did not affect the dissociation kinetics
2 | Cy5-AAIAAVKEEAF [reference compound] |  | unable to bind | 

Source: publication PMC3382112 (Chemistry, an Asian journal, 2012)
